For series [1] the following is noted: rat, cited from earlier work.
For series [2], the system named is inflammatory factors in mouse submandibular glands tissue. Put plainly: Realtime quantitative PCR of inflammatory factors in mouse submandibular gland tissue. Type of series: in vivo. The following applies: for expression of IL-1β / expression of IL-6 / expression of IL-10 / expression of TNF-α: submandibular glands tissue, 36 weeks, p<0.05. As for the experimental part:
Take the mouse submandibular gland tissue and extract RNA using Trizol. Superscript III was used for reverse transcription. Reaction was performed at 42° C. for 30 minutes. Oligo dT and Random Hexamer were used as primers for reverse transcription. Realtime quantitative PCR reaction system: 2×PCR premix 10 μl, Primers 0.8 μl, cDNA 1 μl, add balance of H2O to 20 μl; Reaction conditions: 95° C. 10 min, 95° C. 15 s, 60° C. 60 s, Read plate for 50 cycles; Melting curve Analysis: Temperature 55° C.-95° C., read once per minute. Set up 3 replicates for each sample.

The test system of series [3] is mouse submandibular gland tissue. The experiment in a line: Mouse submandibular gland tissue slice detection (hematoxylin-eosin), lymphocytic infiltration. The following applies: NOD mice, 36 weeks age, FIG. 3. It is filed as in vivo. The text has this: 36 weeks age of mouse submandibular gland tissue was isolated, embedded in paraffin and sliced, stained with hematoxylin-eosin and photographed with an inverted microscope.

Another series relates to NF-κB. The experiment in a line: Western Blot detection of NF-κB activation in mouse submandibular gland tissue. It is filed as in vivo. Particulars: for phosphorylation level of P65: compared with the control group. On the procedure: Detection of NF-κB Activation in Submandibular Gland Tissue of Mouse Submandibular Gland by Western Blot
Take the same amount of total protein for each sample, add 4×SDS loading buffer according to the ratio of protein sample: 4×SDS at 3:1, mix well, boil at 95° C. for 5 min, and prepare 10% separation gel and 5% concentration gel. Perform SDS-PAGE electrophoresis, transfer the membrane, and block the PVDF membrane with 5% solution of skim milk in TBST for 1 hour at room temperature or overnight at 4° C. Dilute antibody with blocking solution, incubate at room temperature for 2 h or 4° C. overnight. Wash membrane, incubate with secondary antibody, and then wash the membrane again. After the equal volume of liquids A and B in the luminescence kit were mixed in a vessel, the mixture was uniformly added dropwise to the PVDF membrane, and the reaction was carried out in the dark for 3-5 minutes.
At the 36th week of treatment, the mouse submandibular glands were taken and Western Blot was used to detect the activation of NF-κB. […] P65 is the protein subunit of NF-κB, and its phosphorylation level directly reflects the activity of NF-κB. In addition, IκB binds to NF-κB to prevent its entry into the nucleus and exerts its activity. Once IκB is phosphorylated, it is degraded and releases NF-κB.
A general note: A western blot detects proteins with antibodies after separation by electrophoresis.

In series [4] the test system is SOD in submandibular gland tissue of mice. Put plainly: Detection of SOD content in submandibular gland tissue. It is filed as in vivo, mouse. The following applies: for content of SOD compared with the control group: 36 weeks; for SOD (Mean ± SD): submandibular gland tissue of mice at 36 weeks of age. On the procedure: Detection of SOD content: The submandibular gland tissue of mice were used to prepare tissue homogenates with icy physiological saline, and the protein content was quantified by BCA method. Refer to the kit operation instructions. Take 0.2 ml of the sample and mix it with 1.3 ml of test solution. Incubate at 37° C. for 40 min. Add 2 ml of chromogenic agent. Placed at room temperature for 10 min. Determine OD at 550 nm. The results are expressed in terms of U/mg protein, which states that the corresponding SOD amount per milligram of protein in a 1 ml reaction solution with a SOD inhibition rate of 50% is an SOD activity unit.

Series [5] relates to MDA in submandibular gland tissue of mice. The experiment in a line: Detection of MDA content in submandibular gland tissue. It is filed as in vivo, mouse. The following applies: for content of MDA compared with the control group: 36 weeks, P<0.05; for MDA (Mean ± SD): submandibular gland tissue of mice at 36 weeks of age. As for the experimental part: Detection of MDA content: The submandibular gland tissue in the submandibular glands of mice were harvested and homogenized with icy physiological saline. The protein content was quantified by BCA. Take 1 ml homogenate, add 1 ml 30% trichloroacetic acid and 1 ml 0.67% TBA in turn, bath in boiling water for 30 min and cool to room temperature. After centrifugation at 3000 g for 10 min, the absorbance (A) of the supernatant was measured at 535 nm, and the MDA content was calculated from the standard curve. The result was expressed in nmol/mg tissue.

Another series deals with NOD mice. The experiment in a line: Saliva flow detection (pilocarpine-stimulated) in NOD mouse model of Sjogren's syndrome. Particulars: for salivary flow compared with the control group: P<0.05; for SFR (salivary flow): NOD mice, PQQ 1 mg/kg/day, active vitamin D 0.1 μg/kg/day; for salivary secretion function of NOD mice: summary statement. It is filed as in vivo. The text has this: Model: NOD mouse model. NOD (Non-obese Diabetes) mice are a genetically deficient animal model of spontaneous diabetes. The female mice develop diabetes from 14 weeks and the incidence can reach as high as 80% by 30 weeks. NOD mice are also an animal model of Sjogren's syndrome. Mice develop inflammatory cell infiltration in the submandibular gland from 12 weeks of age, with increased expression of multiple inflammatory factors, and reduced salivary secretion and increased salivary salt concentration from 16 to 20 weeks of age.
Experimental grouping: 8-week-old female NOD mice were purchased from Shanghai SLE Experimental Animal Corporation and divided into control group, active vitamin d group, PQQ group and PQQ combined with active vitamin D group. There were four different treatment groups, 10 in each group. Saliva flow rates were measured at 12, 24, and 36 weeks of age. The amounts of PQQ and active vitamin D were 1 mg/kg body weight per day and 0.1 μg/kg body weight per day, respectively.
a. Intraperitoneal injection of 1.2% avertin (Chinese name: tribromoethanol), injection dose: 0.2 ml/10 g body weight, formula: (1) […] avertin dissolved in 0.25 ml t-amyl alcohol, shaking for 12 hours to completely dissolve; (2) Add 19.75 ml of 0.9% NaCl solution to obtain 1.2% avertin. Mice were anesthetized gently.
b. Subcutaneous pilocarpine injection in the neck, injection dose: 0.5 mg/kg=0.01 mg/20 g body weight, mother liquor concentration: 0.5 g/10 ml physiological saline=50 mg/ml=0.05×103 mg/ml, solution concentration: the mother liquor was diluted 1000 times, ie, 0.05 mg/ml, to stimulate saliva secretion.
c. Began to collect saliva after 5 minutes, that is, cotton ball with about 8 mg dry weight is made from sterile cotton ball, which is then put into a 1.5 mL EP tube to determine the dry weight. When measuring saliva secretion, the cotton ball is put into the mouse cheek and then taken into the EP tube after 10 min. The wet weight is determined on the electronic balance. Saliva secretion=wet weight of cotton balls−dry weight of cotton balls.

For series [6] the following is noted: chemical stability of o-quinone structure; cited from earlier work.
Where [7] appears, read: submandibular glands, 36th week.

“Also recorded” adds a separate entry of the source. Marks after values point to notes of the source that are not given here.

The values below come from patent publication US10702519B2, “Use of methoxatin, derivative and/or salt thereof in Sjogren's syndrome and pharmaceutical composition” (NANJING SHUPENG LIFESCIENCE CO., LTD, priority 2016, dated 2020).

On to `O=C(O)c1cc(C(=O)O)c2c(n1)C(=O)C(=O)c1cc(C(=O)O)[nH]c1-2` [PQQ, Pyrroloquinoline quinone], for which the adverse reactions result in series [1] (100 mg/kg body weight per day for 14 consecutive days) was “no adverse reactions were found”. The LD50 in series [1] is reported as 1000-2000 mg/kg body weight. For the same compound, in series [2], the “expression of IL-1β” value is “significantly inhibited”, the “expression of IL-6” value was “significantly reduce; also recorded: significantly inhibited”, the “expression of IL-10” value is “significantly inhibited” and the “expression of TNF-α” value is “significantly inhibited”. In series [2] (summary and FIG. 2 legend), the “expression of Il-1” value is listed as “significantly reduce” and the “expression of gamma interferon” value is recorded as “significantly reduce”. Also, the “area of lymphocyte infiltration in submandibular gland” value in series [3] is given as “significantly inhibit; also recorded: significantly reduced”. Also, the “activity of NF-kappaB signaling pathway” value in the series with NF-κB (submandibular gland tissues of NOD mice, summary statement) is “significantly reduce”. In addition, in the series on NF-κB (setting [7]), the “phosphorylation level of IκB” value is “significantly attenuated” and the “phosphorylation level of P65” value is “significantly attenuated”. Further, in series [4], the “content of SOD compared with the control group” value is recorded as “significantly higher” and the “SOD (Mean ± SD)” value was 198.21 ± 21.33 NU/mg protein. Further, in series [5], the “content of MDA compared with the control group” value is on record as “significantly lower” and the “MDA (Mean ± SD)” value was 4.61 ± 0.76 nmol/mg protein. In series [5] (summary statement), the “oxidative stress levels in submandibular gland tissues of NOD mice” value was “significantly inhibit”. Moreover, in the series with NOD mice (36th week), the “salivary flow compared with the control group” value is reported as “significantly higher”. For the same compound, the “SFR (salivary flow)” value in the series on NOD mice (12 W of age) is listed as 2.55 (n = 10) μl/g/10 min. In addition, the “SFR (salivary flow)” value with NOD mice (24 W of age) was 3.21 (n = 6) μl/g/10 min. In addition, the “SFR (salivary flow)” value with NOD mice (36 W of age) was 3.75* (n = 5) μl/g/10 min. Moreover, the “salivary flow compared with the control group” value in the series with NOD mice (age of 24 weeks) is on record as “no significant difference”. The “salivary secretion function of NOD mice” value in the series on NOD mice is on record as “significantly improve”. Besides, the “redox cycles it can participate in” value in series [6] is 20,000.
On to `C=C1/C(=C\C=C2/CCC[C@]3(C)[C@@H]([C@H](C)CCCC(C)(C)O)CC[C@@H]23)C[C@@H](O)C[C@@H]1O` [active vitamin D, 1,25-Dihydroxyvitamin D3, reference compound], for which, in series [2], the “expression of IL-1β” value is on record as “did not detect the effect”, the “expression of IL-6” value is given as “did not detect the effect”, the “expression of IL-10” value was “did not detect the effect” and the “expression of TNF-α” value was “did not detect the effect”. Further, the “phosphorylation level of P65” value in the series on NF-κB (setting [7]) is reported as “no significant change”. In addition, in series [4], the “content of SOD compared with the control group” value is listed as “no significant difference” and the “SOD (Mean ± SD)” value turned out to be 102.45 ± 14.22 NU/mg protein. In addition, in series [5], the “content of MDA compared with the control group” value was “no significant difference” and the “MDA (Mean ± SD)” value was 9.48 ± 2.12 nmol/mg protein. Moreover, in the series with NOD mice (36th week), the “salivary flow compared with the control group” value is “no statistical difference”. In the series with NOD mice (12 W of age), the “SFR (salivary flow)” value is reported as 2.74 (n = 10) μl/g/10 min. Further, the “SFR (salivary flow)” value in the series with NOD mice (24 W of age) is 2.82 (n = 5) μl/g/10 min. Moreover, the “SFR (salivary flow)” value in the series on NOD mice (36 W of age) is 3.22 (n = 4) μl/g/10 min. The “salivary flow compared with the control group” value with NOD mice (age of 24 weeks) is “no significant difference”. The “salivary secretion function of NOD mice” value in the series with NOD mice is on record as “no effect”.
